Reference: ChEMBL document CHEMBL1141039, “Hepatitis C virus NS3-4A serine protease inhibitors: SAR of P'2 moiety with improved potency” (Bioorg Med Chem Lett, 2005)
pKi: −log10 of the molar value. Numbered stars: 1 amine (or outer) side, 2 acyl side, 3 side chain; on linkers, the order of the positions; unused ones are H or OH. Square brackets hold non-standard residues; d marks the D form. Peptide text beside a SMILES is read from it. * marks the point of attachment. Gly(piperidin-4-yl) = N[C@H](C(=O)O)C1CCNCC1; 2Nal = N[C@@H](Cc1ccc2ccccc2c1)C(=O)O; Isobutyloxycarbonyl = CC(C)COC(=O)*; Gly(cPent) = N[C@H](C(=O)O)C1CCCC1; X1 = CCCC(N[*:1])C(=O)C(=O)[*:2]; hPhe = N[C@@H](CCc1ccccc1)C(=O)O; Aad = N[C@@H](CCCC(=O)O)C(=O)O; Cha = N[C@@H](CC1CCCCC1)C(=O)O; Chg = N[C@H](C(=O)O)C1CCCCC1; Phg = N[C@H](C(=O)O)c1ccccc1; Tle = CC(C)(C)[C@H](N)C(=O)O; hSer = N[C@@H](CCO)C(=O)O; Nle = CCCC[C@H](N)C(=O)O; Boc = CC(C)(C)OC(=O)*; OBn = c1ccc(CO*)cc1; Bn = c1ccc(C*)cc1; OtBu = CC(C)(C)O*; tBu = CC(C)(C)*

Target: NS3 (Hepatitis C virus, UniProt A3EZJ3)
Experiment: Inhibitory activity against Hepatitis C virus NS3 serine protease in continuous spectrophotometric assay
Set-up: species or system Hepacivirus hominis

Sequence of NS3 (A3EZJ3 whole entry): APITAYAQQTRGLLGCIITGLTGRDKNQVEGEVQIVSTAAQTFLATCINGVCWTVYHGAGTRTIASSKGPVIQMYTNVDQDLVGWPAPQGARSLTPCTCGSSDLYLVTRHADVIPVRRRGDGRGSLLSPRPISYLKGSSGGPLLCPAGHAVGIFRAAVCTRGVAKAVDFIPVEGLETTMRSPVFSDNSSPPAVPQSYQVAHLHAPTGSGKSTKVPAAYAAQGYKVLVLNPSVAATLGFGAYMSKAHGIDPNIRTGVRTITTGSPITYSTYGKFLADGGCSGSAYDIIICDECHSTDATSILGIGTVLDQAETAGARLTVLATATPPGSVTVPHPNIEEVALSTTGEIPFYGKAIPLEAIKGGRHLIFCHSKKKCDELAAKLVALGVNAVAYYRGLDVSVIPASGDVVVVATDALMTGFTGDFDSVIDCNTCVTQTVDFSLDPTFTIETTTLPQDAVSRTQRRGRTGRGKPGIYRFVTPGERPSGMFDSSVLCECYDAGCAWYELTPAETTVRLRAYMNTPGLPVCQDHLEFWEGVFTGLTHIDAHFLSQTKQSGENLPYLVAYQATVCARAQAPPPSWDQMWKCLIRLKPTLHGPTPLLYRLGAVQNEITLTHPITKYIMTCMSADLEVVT

| Compound | pKi |
| --- | --- |
| CCCC(NC(=O)[C@@H]1CCCN1C(=O)[C@@H](NC(=O)OCC(C)C)C(C)C)C(=O)C(=O)NCC(=O)N[C@@H](CCC(=O)OCC)C(=O)OC (some centres not stated) (Isobutyloxycarbonyl-VP[X1]GE(OEt)-OMe) | 4.70 |
| CCCC(NC(=O)[C@H](CC(C)C)NC(=O)[C@@H](NC(=O)OCC(C)C)C1CCCCC1)C(=O)C(=O)NCC(=O)N[C@H](C(=O)O)C1CCN(C(=O)OC(C)(C)C)CC1 (some centres not stated) | 5.48 |
| CCCC(NC(=O)[C@H](CC(C)C)NC(=O)[C@@H](NC(=O)OC(C)(C)C)C1CCCCC1)C(=O)C(=O)NCC(=O)N[C@H](C(=O)OCc1ccccc1)c1ccccc1 (some centres not stated) (Boc-[Chg]L[X1]G[Phg]-OBn) | 6.22 |
| CCCC(NC(=O)[C@H](CC(C)C)NC(=O)[C@@H](NC(=O)OCC(C)C)C1CCCCC1)C(=O)C(=O)NCC(=O)N[C@H](C(N)=O)C(C)C (some centres not stated) (Isobutyloxycarbonyl-[Chg]L[X1]GV-NH2) | 5.59 |
| CCCC(NC(=O)[C@@H]1CCCN1C(=O)[C@@H](NC(=O)OCC(C)C)C(C)C)C(=O)C(=O)NCC(=O)N[C@@H](COCc1ccccc1)C(N)=O (some centres not stated) (Isobutyloxycarbonyl-VP[X1]GS(Bn)-NH2) | 5.46 |
| CCCC(NC(=O)[C@H](CC(C)C)NC(=O)[C@@H](NC(=O)OCC(C)C)C1CCCCC1)C(=O)C(=O)NCC(=O)N[C@@H](CC(=O)O)C(N)=O (some centres not stated) (Isobutyloxycarbonyl-[Chg]L[X1]GD-NH2) | 5.08 |
| CCCC(NC(=O)[C@H](CC(C)C)NC(=O)[C@@H](NC(=O)OCC(C)C)C1CCCCC1)C(=O)C(=O)NCC(=O)N[C@@H](COC(C)(C)C)C(N)=O (some centres not stated) (Isobutyloxycarbonyl-[Chg]L[X1]GS(tBu)-NH2) | 6.34 |
| CCCC(NC(=O)[C@@H]1CCCN1C(=O)[C@@H](NC(=O)OCC(C)C)C(C)C)C(=O)C(=O)NCC(=O)N[C@@H](CC(=O)O)C(=O)O (some centres not stated) (Isobutyloxycarbonyl-VP[X1]GD-OH) | < 4.00 |
| CCCC(NC(=O)[C@H](CC(C)C)NC(=O)[C@@H](NC(=O)OC(C)(C)C)C1CCCCC1)C(=O)C(=O)NCC(=O)NCc1ccccc1 (some centres not stated) | 4.09 |
| CCCC(NC(=O)[C@@H]1CCCN1C(=O)[C@@H](NC(=O)OCC(C)C)C(C)C)C(=O)C(=O)NCC(=O)N[C@@H](Cc1ccccc1)C(N)=O (some centres not stated) (Isobutyloxycarbonyl-VP[X1]GF-NH2) | 4.82 |
| CCCC(NC(=O)[C@@H]1CCCN1C(=O)[C@@H](NC(=O)OCC(C)C)C(C)C)C(=O)C(=O)NCC(=O)N[C@H](C(=O)OC)[C@@H](C)CC (some centres not stated) (Isobutyloxycarbonyl-VP[X1]GI-OMe) | 4.82 |
| CCCC[C@H](NC(=O)CNC(=O)C(=O)C(CCC)NC(=O)[C@H](CC(C)C)NC(=O)[C@@H](NC(=O)OCC(C)C)C1CCCCC1)C(N)=O (some centres not stated) (Isobutyloxycarbonyl-[Chg]L[X1]G[Nle]-NH2) | 6.55 |
| CCCC(NC(=O)[C@@H]1CCCN1C(=O)[C@@H](NC(=O)OCC(C)C)C(C)C)C(=O)C(=O)NCC(=O)N[C@@H](CC(=O)OC)C(=O)OC (some centres not stated) (Isobutyloxycarbonyl-VP[X1]GD(OMe)-OMe) | 4.26 |
| CCCC(NC(=O)[C@H](CC(C)C)NC(=O)[C@@H](NC(=O)OCC(C)C)C1CCCCC1)C(=O)C(=O)NCC(=O)N[C@H](C(=O)O)C1CCCC1 (some centres not stated) (Isobutyloxycarbonyl-[Chg]L[X1]G[Gly(cPent)]-OH) | 6.48 |
| CCCC(NC(=O)[C@@H]1CCCN1C(=O)[C@@H](NC(=O)OCC(C)C)C(C)C)C(=O)C(=O)NCC(=O)N[C@@H](CCCC(=O)O)C(N)=O (some centres not stated) (Isobutyloxycarbonyl-VP[X1]G[Aad]-NH2) | 4.74 |
| CCCC(NC(=O)[C@H](CC(C)C)NC(=O)[C@@H](NC(=O)OCC(C)C)C1CCCCC1)C(=O)C(=O)NCC(=O)N[C@H](C(=O)O)c1ccccc1 (some centres not stated) (Isobutyloxycarbonyl-[Chg]L[X1]G[Phg]-OH) | 6.92 |

| Compound | pKi |
| --- | --- |
| CCCC(NC(=O)[C@H](CC(C)C)NC(=O)[C@@H](NC(=O)OCC(C)C)C1CCCCC1)C(=O)C(=O)NCC(=O)N[C@H](C(=O)O)C1CCNCC1 (some centres not stated) (Isobutyloxycarbonyl-[Chg]L[X1]G[Gly(piperidin-4-yl)]-OH) | 5.19 |
| CCCC(NC(=O)[C@H](CC(C)C)NC(=O)[C@@H](NC(=O)OC(C)(C)C)C1CCCCC1)C(=O)C(=O)NCC(=O)N[C@H](C(=O)O)c1ccccc1 (some centres not stated) (Boc-[Chg]L[X1]G[Phg]-OH) | 7.01 |
| CCCC(NC(=O)[C@@H]1CCCN1C(=O)[C@@H](NC(=O)OCC(C)C)C(C)C)C(=O)C(=O)NCC(=O)N[C@H](C(N)=O)C1CCCCC1 (some centres not stated) (Isobutyloxycarbonyl-VP[X1]G[Chg]-NH2) | 5.59 |
| CCCC(NC(=O)[C@@H]1CCCN1C(=O)[C@@H](NC(=O)OCC(C)C)C(C)C)C(=O)C(=O)NCC(=O)N[C@@H](CC1CCCCC1)C(N)=O (some centres not stated) (Isobutyloxycarbonyl-VP[X1]G[Cha]-NH2) | 5.10 |
| CCCC(NC(=O)[C@@H]1CCCN1C(=O)[C@@H](NC(=O)OCC(C)C)C(C)C)C(=O)C(=O)NCC(=O)N[C@@H](Cc1ccc2ccccc2c1)C(N)=O (some centres not stated) (Isobutyloxycarbonyl-VP[X1]G[2Nal]-NH2) | 4.92 |
| CCCC(NC(=O)[C@@H]1CCCN1C(=O)[C@@H](NC(=O)OCC(C)C)C(C)C)C(=O)C(=O)NCC(=O)N[C@@H](CCC(=O)O)C(=O)O (some centres not stated) (Isobutyloxycarbonyl-VP[X1]GE-OH) | < 4.00 |
| CCCC(NC(=O)[C@@H]1CCCN1C(=O)[C@@H](NC(=O)OCC(C)C)C(C)C)C(=O)C(=O)NCC(=O)N[C@H](C(N)=O)C(C)(C)C (some centres not stated) (Isobutyloxycarbonyl-VP[X1]G[Tle]-NH2) | 4.28 |
| CCCC(NC(=O)[C@@H]1CCCN1C(=O)[C@@H](NC(=O)OCC(C)C)C(C)C)C(=O)C(=O)NCC(=O)N[C@@H](CCCCN)C(N)=O (some centres not stated) (Isobutyloxycarbonyl-VP[X1]GK-NH2) | 4.09 |
| CCCC(NC(=O)[C@@H]1CCCN1C(=O)[C@@H](NC(=O)OCC(C)C)C(C)C)C(=O)C(=O)NCC(=O)N[C@@H](CC(C)C)C(N)=O (some centres not stated) (Isobutyloxycarbonyl-VP[X1]GL-NH2) | 4.80 |
| CCCC(NC(=O)[C@@H]1CCCN1C(=O)[C@@H](NC(=O)OCC(C)C)C(C)C)C(=O)C(=O)NCC(=O)N[C@@H](CCc1ccccc1)C(N)=O (some centres not stated) (Isobutyloxycarbonyl-VP[X1]G[hPhe]-NH2) | 5.17 |
| CCCC(NC(=O)[C@@H]1CCCN1C(=O)[C@@H](NC(=O)OCC(C)C)C(C)C)C(=O)C(=O)NCC(=O)N[C@@H](CCO)C(N)=O (some centres not stated) (Isobutyloxycarbonyl-VP[X1]G[hSer]-NH2) | 3.95 |
| CCCC(NC(=O)[C@@H]1CCCN1C(=O)[C@@H](NC(=O)OCC(C)C)C(C)C)C(=O)C(=O)NCC(=O)N[C@H](C(=O)O)[C@@H](C)CC (some centres not stated) (Isobutyloxycarbonyl-VP[X1]GI-OH) | 4.82 |
| CCCC(NC(=O)[C@H](CC(C)C)NC(=O)[C@@H](NC(=O)OCC(C)C)C1CCCCC1)C(=O)C(=O)NCC(=O)N[C@H](C(=O)OC(C)(C)C)c1ccccc1 (some centres not stated) (Isobutyloxycarbonyl-[Chg]L[X1]G[Phg]-OtBu) | 6.19 |
| CCCC(NC(=O)[C@@H]1CCCN1C(=O)[C@@H](NC(=O)OC(C)(C)C)C1CCCCC1)C(=O)C(=O)NCC(=O)NCc1ccccc1 (some centres not stated) | 4.35 |
| CCCC(NC(=O)[C@@H]1CCCN1C(=O)[C@@H](NC(=O)OCC(C)C)C1CCCCC1)C(=O)C(=O)NCC(=O)N[C@H](C(N)=O)c1ccccc1 (some centres not stated) (Isobutyloxycarbonyl-[Chg]P[X1]G[Phg]-NH2) | 6.44 |
| CCCC(NC(=O)[C@@H]1CCCN1C(=O)[C@@H](NC(=O)OCC(C)C)C(C)C)C(=O)C(=O)NCC(=O)N[C@H](C(N)=O)c1ccccc1 (some centres not stated) (Isobutyloxycarbonyl-VP[X1]G[Phg]-NH2) | 5.68 |
